Results reported in ChEMBL document CHEMBL5375942, “Discovery of a Potent Chloroacetamide GPX4 Inhibitor with Bioavailability to Enable Target Engagement in Mice, a Potential Tool Compound for Inducing Ferroptosis In Vivo” (J Med Chem, 2023).
Values belong to the compound of their own block, whether it stands above or below them. The source made the active and inactive calls. The calls are words filed in the database; no cut-off is given here.

Key:
NCI-H1703 [1] = assay: Induction of ferroptosis in human NCI-H1703 cells assessed as cell viability incubated for 72 hrs by CellTiter-Glo luminescent cell viability assay; assay type: functional, cell-based; conditions: NCI-H1703, 72 h
NCI-H1703 [2] = assay: Induction of ferroptosis in human NCI-H1703 cells assessed as cell viability incubated for 72 hrs in presence of ferrostatin-1 by CellTiter-Glo luminescent cell viability assay; assay type: functional, cell-based; conditions: NCI-H1703, 72 h
[3] = Metabolic stability in mouse liver microsomes assessed as unbound intrinsic clearance; assay type: ADME, Microsome
[4] = Metabolic stability in human liver microsomes assessed as unbound intrinsic clearance; assay type: ADME, Microsome
[5] = Stability in mouse plasma assessed as half life; assay type: ADME, cell-free
[6] = Stability in human plasma assessed as half life; assay type: ADME, cell-free
[7] = Unbound fraction in human plasma; assay type: ADME, cell-free
[8] = Plasma clearance in iv dosed mouse; assay type: ADME, organism-based
[9] = Aqueous solubility of the compound at pH 7; assay type: physicochemical
[10] = Aqueous solubility of the compound at pH 1; assay type: physicochemical
[11] = Half life in CB17 SCID-Beige mouse subcutaneously inoculated with WSUDLCL2 cells at 100 mg/kg, ip; assay type: ADME, organism-based; conditions: in vivo
[12] = Cmax in CB17 SCID-Beige mouse subcutaneously inoculated with WSUDLCL2 cells at 100 mg/kg, ip; assay type: ADME, organism-based; set-up: dose 100 mg/kg, route ip; conditions: in vivo
[13] = AUC in CB17 SCID-Beige mouse subcutaneously inoculated with WSUDLCL2 cells at 100 mg/kg, ip; assay type: ADME, organism-based; set-up: dose 100 mg/kg, route ip; conditions: in vivo
[14] = Half life in CB17 SCID-Beige mouse subcutaneously inoculated with WSUDLCL2 cells at 100 mg/kg, sc; assay type: ADME, organism-based; conditions: in vivo
[15] = Cmax in CB17 SCID-Beige mouse subcutaneously inoculated with WSUDLCL2 cells at 100 mg/kg, sc; assay type: ADME, organism-based; set-up: dose 100 mg/kg, route sc; conditions: in vivo
[16] = AUC in CB17 SCID-Beige mouse subcutaneously inoculated with WSUDLCL2 cells at 100 mg/kg, sc; assay type: ADME, organism-based; set-up: dose 100 mg/kg, route sc; conditions: in vivo
HT-1080 [17] = assay: Induction of ferroptosis in GPX4-dependent human HT-1080 cells assessed as cell viability measured immediately after addition of compound by time-course cell viability assay; assay type: functional, cell-based
HT-1080 [18] = assay: Induction of ferroptosis in GPX4-dependent human HT-1080 cells assessed as cell viability incubated for […] by time-course cell viability assay; assay type: functional, cell-based
HT-1080 [19] = assay: Induction of ferroptosis in GPX4-dependent human HT-1080 cells assessed as cell viability incubated for 3 hrs by time-course cell viability assay; assay type: functional, cell-based; conditions: HT-1080, 3 h
HT-1080 [20] = assay: Induction of ferroptosis in GPX4-dependent human HT-1080 cells assessed as cell viability incubated for 6 hrs by time-course cell viability assay; assay type: functional, cell-based; conditions: HT-1080, 6 h
HT-1080 [21] = assay: Induction of ferroptosis in GPX4-dependent human HT-1080 cells assessed as cell viability incubated for […] in presence of 40% human plasma by time-course cell viability assay; assay type: functional, cell-based
HT-1080 [22] = assay: Induction of ferroptosis in GPX4-dependent human HT-1080 cells assessed as cell viability incubated for 3 hrs in presence of 40% human plasma by time-course cell viability assay; assay type: functional, cell-based; conditions: HT-1080, 3 h
HT-1080 [23] = assay: Induction of ferroptosis in GPX4-dependent human HT-1080 cells assessed as cell viability incubated for 6 hrs in presence of 40% human plasma by time-course cell viability assay; assay type: functional, cell-based; conditions: HT-1080, 6 h
HT-1080 [24] = assay: Induction of ferroptosis in GPX4-dependent human HT-1080 cells assessed as cell viability incubated for 24 hrs in presence of 40% human plasma by time-course cell viability assay; assay type: functional, cell-based; conditions: HT-1080, 24 h
[25] = molecular target: Phospholipid hydroperoxide glutathione peroxidase GPX4 (Mus musculus) (UniProt O70325); assay: Target engagement at GPX4 in mouse 4T1 cells assessed as mass change between covalently bound protein and unbound protein at 0.01 to 1 ug/ml measured after 2 hrs by Western blot analysis; assay type: cell-based; conditions: dose 0.01-1 µg/ml
Phospholipid hydroperoxide glutathione peroxidase GPX4 (Mus musculus), sequence (O70325 whole entry): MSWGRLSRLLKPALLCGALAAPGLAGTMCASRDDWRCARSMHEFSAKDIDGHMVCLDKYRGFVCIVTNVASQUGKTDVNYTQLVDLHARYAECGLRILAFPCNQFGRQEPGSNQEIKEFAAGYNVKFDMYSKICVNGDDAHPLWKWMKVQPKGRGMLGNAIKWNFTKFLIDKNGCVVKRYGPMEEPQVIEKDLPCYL

WSUDLCL2 [26] = assay: Induction of ferroptosis in human WSUDLCL2 cells assessed as cell viability incubated for 72 hrs by CellTiter-Glo luminescent cell viability assay; assay type: functional, cell-based
WSUDLCL2 [27] = assay: Induction of ferroptosis in human WSUDLCL2 cells assessed as cell viability incubated for 72 hrs in presence of ferrostatin-1 by CellTiter-Glo luminescent cell viability assay; assay type: functional, cell-based
WSUDLCL2 [28] = assay: Induction of ferroptosis in human WSUDLCL2 cells assessed as cell viability incubated for 72 hrs in presence of liproxstatin-1 by CellTiter-Glo luminescent cell viability assay; assay type: functional, cell-based
HT-1080 [29] = assay: Induction of ferroptosis in GPX4-dependent human HT-1080 cells assessed as cell viability incubated for 24 hrs by time-course cell viability assay; assay type: functional, cell-based; conditions: HT-1080, 24 h
[30] = molecular target: Phospholipid hydroperoxide glutathione peroxidase GPX4 (Mus musculus) (UniProt O70325); assay: In vivo inhibition of GPX4 in SCID/Beige mouse assessed as increase in malondialdehyde level in kidney homogenate at 100 to 200 mg/kg, ip by TBAR assay; assay type: functional, organism-based; conditions: dose 100-200 mg/kg
[31] = molecular target: Phospholipid hydroperoxide glutathione peroxidase GPX4 (Mus musculus) (UniProt O70325); assay: In vivo inhibition of GPX4 in SCID/Beige mouse assessed as increase in malondialdehyde level in plasma at 100 to 200 mg/kg, ip by TBAR assay; assay type: functional, organism-based; conditions: dose 100-200 mg/kg
[32] = molecular target: Phospholipid hydroperoxide glutathione peroxidase GPX4 (Mus musculus) (UniProt O70325); assay: In vivo inhibition of GPX4 in SCID/Beige mouse assessed as fold increase in PTGS2 transcription in kidney homogenate at 100 to 200 mg/kg, ip by qPCR analysis relative to vehicle treated control; assay type: functional, organism-based; conditions: dose 100-200 mg/kg
WSUDLCL2 [33] = assay: Effect on tumor volume in human WSUDLCL2 cells subcutaneously inoculated in CB17 SCID-Beige mouse tumor model at 50 to 100 mg/kg, ip measured upto day 20; assay type: functional, organism-based; conditions: dose 50-100 mg/kg
WSUDLCL2 [34] = assay: In vivo target engagement at GPX4 in human WSUDLCL2 cells subcutaneously inoculated in CB17 SCID-Beige mouse assessed as target engagement in tumor at 50 to 100 mg/kg, ip measured upto day 20 by Western blot analysis; assay type: functional, organism-based; conditions: dose 50-100 mg/kg

EC50 (NCI-H1703 [1]): 64 nM
EC50 (NCI-H1703 [2]): > 10000 nM
SMILES: COC(=O)[C@H]1Cc2c([nH]c3ccccc23)C(c2ccc(F)cc2C(F)(F)F)N1C(=O)CCl (single isomer, unassigned)

EC50 (NCI-H1703 [1]): 984 nM
CL free [3]: 4725 mL/min/kg
CL free [4]: 477 mL/min/kg
half-life [5]: 2.7 h
half-life [6]: 6.1 h
fraction unbound [7]: 0.026
EC50 (NCI-H1703 [2]): > 10000 nM
SMILES: COC(=O)[C@H]1Cc2c([nH]c3ccccc23)[C@H](Cc2ccccc2)N1C(=O)CCl

EC50 (NCI-H1703 [1]): 1390 nM
half-life [5]: 0.2 h
half-life [6]: 1 h
SMILES: COC(=O)c1ccc([C@H]2c3[nH]c4ccccc4c3CCN2C(=O)CCl)cc1

EC50 (NCI-H1703 [1]): 127 nM
CL free [3]: 2050 mL/min/kg
CL free [4]: 375 mL/min/kg
half-life [5]: 4.02 h
half-life [6]: 13 h
fraction unbound [7]: 0.068
EC50 (NCI-H1703 [2]): > 10000 nM
SMILES: COC(=O)[C@H]1Cc2c([nH]c3ccccc23)[C@H](c2ccc(OC)cc2)N1C(=O)CCl

clearance [8]: 50 mL/min/kg
CL free [3]: 2682 mL/min/kg
CL free [4]: 183 mL/min/kg
half-life [5]: 13.7 h
half-life [6]: > 16 h
SMILES: COC(=O)[C@H]1Cc2c([nH]c3ccccc23)[C@H](c2ccccc2)N1C(C)=O

EC50 (NCI-H1703 [1]): 80 nM
clearance [8]: 478 mL/min/kg
CL free [3]: 8720 mL/min/kg
CL free [4]: 195 mL/min/kg
half-life [5]: 0.167 h
half-life [6]: 14.6 h
solubility [9]: < 0.8 µM
solubility [10]: < 0.8 µM
half-life [11]: 1.8 h
Cmax [12]: 650 ng/mL
AUC [13]: 2.79 µg/h/mL
half-life [14]: 4.1 h
Cmax [15]: 480 ng/mL
AUC [16]: 2.67 µg/h/mL
EC50 (HT-1080 [17]): 590 nM
EC50 (HT-1080 [18]): 160 nM
EC50 (HT-1080 [19]): 80 nM
EC50 (HT-1080 [20]): 60 nM
EC50 (HT-1080 [21]): 1420 nM
EC50 (HT-1080 [22]): 1010 nM
EC50 (HT-1080 [23]): 750 nM
EC50 (HT-1080 [24]): 880 nM
Activity [25]: Active
SMILES: COC(=O)c1ccc([C@H]2c3[nH]c4ccccc4c3C[C@H](C(=O)OC)N2C(=O)CCl)cc1
Activity (WSUDLCL2 [26]): Active
Activity (WSUDLCL2 [27]): inactive
Activity (WSUDLCL2 [28]): inactive

EC50 (NCI-H1703 [1]): 117 nM
EC50 (NCI-H1703 [2]): 4740 nM
EC50 (HT-1080 [18]): 850 nM
EC50 (HT-1080 [19]): 270 nM
EC50 (HT-1080 [20]): 170 nM
EC50 (HT-1080 [29]): 90 nM
EC50 (HT-1080 [21]): 1260 nM
EC50 (HT-1080 [22]): 770 nM
EC50 (HT-1080 [23]): 490 nM
EC50 (HT-1080 [24]): 520 nM
Activity [30]: Active
Activity [31]: Active
Activity [32]: Active
fold change (FC) [32]: 8
SMILES: COC(=O)[C@H]1Cc2c([nH]c3ccccc23)[C@H](c2ccc(S(C)(=O)=O)cc2)N1C(=O)CCl
Activity (WSUDLCL2 [26]): Active
Activity (WSUDLCL2 [27]): inactive
Activity (WSUDLCL2 [28]): inactive
Activity (WSUDLCL2 [33]): inactive
Activity (WSUDLCL2 [34]): Active

EC50 (NCI-H1703 [1]): 42 nM
CL free [3]: 1060 mL/min/kg
CL free [4]: 147 mL/min/kg
half-life [5]: 2.12 h
half-life [6]: 2.63 h
EC50 (NCI-H1703 [2]): > 10000 nM
SMILES: COC(=O)[C@H]1Cc2c([nH]c3ccccc23)[C@H](c2ccc(C(F)(F)F)nc2)N1C(=O)CCl

Activity [25]: Active
SMILES: COC(=O)c1ccc([C@@H]2c3[nH]c4ccccc4c3C[C@H](C(=O)OC)N2C(=O)CCl)cc1

EC50 (NCI-H1703 [1]): 157 nM
half-life [5]: 0.317 h
half-life [6]: 0.4 h
SMILES: C#CC(=O)N1[C@@H](c2ccccc2)c2[nH]c3ccccc3c2C[C@@H]1C(=O)OC

EC50 (NCI-H1703 [1]): 737 nM
EC50 (NCI-H1703 [2]): 3740 nM
SMILES: CN(C)C(=O)[C@H]1Cc2c([nH]c3ccccc23)[C@H](c2ccccc2)N1C(=O)CCl

EC50 (NCI-H1703 [1]): 1760 nM
CL free [3]: 1640 mL/min/kg
CL free [4]: 292 mL/min/kg
half-life [5]: 3.6 h
half-life [6]: 7.43 h
fraction unbound [7]: 0.061
EC50 (NCI-H1703 [2]): > 10000 nM
SMILES: O=C([C@H]1Cc2c([nH]c3ccccc23)[C@H](c2ccccc2)N1C(=O)CCl)N1CCCC1
